According to patent publication EP1143955B1, “A COMBINATION OF FBPase INHIBITORS AND INSULIN SENSITIZERS FOR THE TREATMENT OF DIABETES” (priority 1998, dated 2000):

How the values were obtained:
[1] = test system: Rat Hepatocytes; assay: Inhibition of glucose production and elevation of fructose-1,6-bisphosphate levels in rat hepatocytes (Example D); type: cell-based; conditions: isolated rat hepatocytes
Procedure: Hepatocytes were prepared from fed Sprague-Dawley rats (250-300 g) according to the procedure of Berry and Friend (Berry, M.N., Friend, D.S., 1969, J. Cell. Biol. 43, 506-520) as modified by Groen (Groen, A.K., Sips, H.J., Vervoom, R.C., Tager, J.M. , 1982, Eur. J. Biochem. 122, 87-93). Hepatocytes (75 mg wet weight/ml) were incubated in 1 ml Krebs-bicarbonate buffer containing 10 mM Lactate, 1 mM pyruvate, 1 mg/ml BSA, and test compound concentrations from 0 to 500 µM. Incubations were carried out in a 95% oxygen, 5% carbon dioxide atmosphere in closed, 50-ml Falcon tubes submerged in a rapidly shaking water bath (37°C). After 1 hour, an aliquot (0.25 ml) was removed, transferred to an Eppendorf tube and centrifuged. 50 µl of supernatant was then assayed for glucose content using a Sigma Glucose Oxidase kit as per the manufacturer's instructions.
Rat hepatocytes were isolated and incubated as described in Example C. Cell extracts, were analyzed for glucose content as described in Example C, and also for fructose 1,6-bisphosphate. Fructose 1,6-bisphosphate was assayed spectrophotometrically by coupling its enzymatic conversion to glycerol 3-phosphate to the oxidation of NADH, which was monitored at 340 nm. […] After a 30 minute preincubation at 37°C, 1 unit/ml of aldolase was added and the change in absorbance measured until a stable value was obtained. […]

[2] = test system: Normal Fasted Rats; assay: Glucose lowering after intraperitoneal administration to normal fasted rats (Example F); type: in vivo; conditions: 18-hour fasted Sprague-Dawley rats, one hour post injection
Procedure: Sprague-Dawley rats (250-300 g) were fasted for 18 hours and then dosed intraperitoneally either with saline or FBPase inhibitor. The vehicle used for drug administration was 10 mM bicarbonate. One hour post injection, rats were anesthetized with halothane, and liver and blood samples were taken and processed as described in Example E. The neutralized liver extracts were analyzed for FBPase inhibitor content by HPLC. A reverse phase YMC ODS AQ column ([…]) was used and eluted with a gradient from 10 mM sodium phosphate pH 5.5 to 75% acetonitrile. Absorbance was monitored at 310 nm. Glucose was measured in the blood sample as described in Example C. Plasma was prepared by centrifugation and extracted by addition of methanol to 60% (v/v). The methanolic extract was clarified by centrifugation and filtration and then analyzed by HPLC as described above.

[3] = test system: ZDF rat; assay: Combination treatment with Troglitazone and Compound G or Compound J in the ZDF rat - blood glucose (Example N); type: in vivo, Zucker Diabetic Fatty (ZDF) rat; conditions: for Blood Glucose, mg/dl Day 0: Day 0 (baseline); for Blood Glucose, mg/dl Day 21: Compound J 0.4% food admixture for 21 days
Procedure: (§1) At 11 weeks of age, animals with blood glucose >500 mg/dl were selected and divided into 4 treatment groups (n=8/group). […] Blood glucose levels were measured in tail vein samples by means of a HemoCue glucose analyzer (HemoCue Inc., Mission Viejo, CA). Values are expressed as the mean plus or minus the standard error of the mean. Differences between groups were evaluated by analysis of variance with the Tukey-Kramer post hoc test.

[4] = Oral bioavailability determination by the urinary excretion method in the rat (Example G); type: in vivo, Sprague Dawley rats
Procedure: The oral bioavailability of prodrugs and parent compounds was determined by the urinary excretion method in the rat. Prodrugs were dissolved in 10% ethanol/90% polyethylene glycol (mw 400) and administered by oral gavage at doses of 10 to 40 mg/kg parent compound equivalents to 6-hour fasted, Sprague Dawley rats (220-240 g). Parent compounds were typically dissolved in deionized water, neutralized with sodium hydroxide, and then administered orally at 10-40 mg/kg or intravenously at ~10 mg/kg. The rats were subsequently placed in metabolic cages and urine was collected for 24 hours. The quantity of parent compound excreted into urine was determined by HPLC analysis as described in Example F. Analysis was performed as described in Example F. For prodrugs, the percentage oral bioavailability was estimated by comparison of the recovery in urine of the parent compound generated from the prodrug administered orally, to that recovered in urine following intravenous administration of the corresponding parent compound. For parent compounds, the percentage oral bioavailability was estimated by comparison of the recovery in urine of the parent compound when administered orally to that recovered when administered intravenously.

[5] = test system: ZDF rat; assay: Combination treatment in the ZDF rat - plasma triglycerides (Example O); type: in vivo, Zucker Diabetic Fatty (ZDF) rat; conditions: for Plasma Triglycerides, mg/dl (Mean ± SEM): final day of treatment
Source text: Results are considered significant with p<0.05.

[6] = test system: ZDF rat; assay: Combination treatment in the ZDF rat - blood lactate (Example Q); set-up: species or system Zucker Diabetic Fatty (ZDF) rat; conditions: in vivo
Source text: Blood samples were taken from the tail vein on days 0, 3, 7, 10 and 14 of the Troglitazone-Compound G combination study and on days 0,7,14, and 21 of the Troglitazone-Compound J combination study (study protocols are described in Example N).

[7] = test system: db/db mouse; assay: Combination treatment with Troglitazone and Compound G in the db/db mouse - blood glucose (Example S); type: in vivo; conditions: db/db mice, Troglitazone 0.1%, mean ± SEM
Source text: Treatment was for 18 days. […] Results are considered significant with p<0.05.

[8] = test system: ZDF rat; assay: Combination treatment in the ZDF rat - plasma insulin (Example P); type: in vivo, Zucker Diabetic Fatty (ZDF) rat; conditions: Troglitazone-Compound G study, final day of treatment
Procedure: Plasma was prepared by centrifugation and insulin levels then measured by means of an enzyme-linked immunoassay kit according to the instructions of the manufacturer (Amersham Life Sciences). […] Results are considered significant with p<0.05.

[9] = test system: db/db mouse; assay: Combination treatment with Troglitazone and Compound A in the db/db mouse - blood glucose (Example T); type: in vivo, C57BL/KsJ-db/db mice; conditions: for Blood glucose, mg/dl (8 am day 4): fed
Source text: Male C57BL/KsJ-db/db mice were obtained from Jackson Laboratories (Bar Harbor, Maine) at 9 weeks of age. […] Group 1 (controls) received powdered Purina 5008 chow alone. […] This dose is reported to elicit the maximal hypoglycemic effect of Troglitazone in this model (Fujiwara et al 1995). […] Results are considered significant with p<0.05.

[10] = test system: Rat Hepatocytes; assay: Inhibition of Gluconeogenesis in Rat Hepatocytes (Example C); type: cell-based; conditions: glucose production from 10 mM lactate, 1 mM pyruvate, 1 hour, hepatocytes from fed Sprague-Dawley rats
Procedure: Hepatocytes (75 mg wet weight/ml) were incubated in 1 ml Krebs-bicarbonate buffer containing 10 mM Lactate, 1 mM pyruvate, 1 mg/ml BSA, and test compound concentrations from 0 to 500 µM. […] After 1 hour, an aliquot (0.25 ml) was removed, transferred to an Eppendorf tube and centrifuged. 50 µl of supernatant was then assayed for glucose content using a Sigma Glucose Oxidase kit as per the manufacturer's instructions.

[11] = test system: type 2 diabetics; conditions: most common side-effect; cited from earlier work
[12] = molecular target: Mouse liver FBPase; assay: Inhibition of mouse liver FBPase (Example B); type: biochemical; conditions: partially purified mouse liver FBPase, assayed as for human liver FBPase
Procedure: (§2) Mouse liver FBPase was obtained by homogenizing freshly isolated mouse liver in 100 mM Tris-HCl buffer, pH 7.4, containing 1 mM EGTA, and 10% glycerol. […] This fraction was redissolved in the homogenization buffer and desalted on a PD-10 gel filtration column (Biorad) eluted with same. This partially purified fraction was used for enzyme assays.

[13] = molecular target: human liver FBPase; assay: Inhibition of Human Liver FBPase (Example A); type: biochemical; conditions: […] fructose 1,6-bisphosphate, 37°C
[14] = molecular target: rat liver FBPase; assay: Inhibition of rat liver FBPase (Example B); type: biochemical; conditions: assayed as for human liver FBPase
Procedure: as §2

[15] = test system: ZDF rat; assay: Combination treatment with Rosiglitazone and Compound G in the ZDF rat - blood glucose (Example R); type: in vivo, Zucker Diabetic Fatty (ZDF) rat; conditions: Rosiglitazone 0.0045%, Compound G 0.2% food admixture, 25 days
Procedure: as §1

[16] = Troglitazone-Compound J study, Troglitazone 0.2%, Compound J 0.4% food admixture, mean ± SEM
[17] = Troglitazone-Compound J study, Troglitazone 0.2%, mean ± SEM

SMILES: CCc1cc(F)c(N)c2nc(-c3ccc(P(=O)(O)O)o3)n(CC(C)C)c12 [Compound E]
- intracellular fructose 1,6-bisphosphate [1]: dose-dependent elevation of intracellular fructose 1,6-bisphosphate
- Glucose Lowering, % [2]: 44.4%

SMILES: CCOC(=O)[C@H](C)NP(=O)(N[C@@H](C)C(=O)OCC)c1ccc(-c2nc(N)sc2CC(C)C)o1 [Compound J, 2-Amino-5-isobutyl-4-{2-[5-(N,N'-bis((S)-1-ethoxycarbonyl)ethyl)phosphonamido]furanyl}thiazole]
- Blood Glucose, mg/dl Day 0 [3, 16]: 674 ± 20 mg/dL
- Blood Glucose, mg/dl Day 21 [3, 17]: 452 ± 40 mg/dL
- blood glucose lowering in pilot studies (dose selection) ([3]; ZDF rat, food admixture, pilot studies): a trend (not significant) towards more pronounced blood glucose lowering at 0.4% than at 0.2%
- Oral bioavailability, % ([4]; rat, in vivo, po, 24 h): 21%
- Plasma Triglycerides, mg/dl (Mean ± SEM) ([5]; Troglitazone-Compound J study): 759 ± 76 mg/dL
- elevation of plasma triglycerides ([5]; monotherapy vs control, ZDF rat): ~2 fold
- blood lactate typically elevated over baseline [6]: ~ 2 fold
- maximal blood lactate elevations over baseline [6]: 3 fold

SMILES: Cc1c(C)c2c(c(C)c1O)CCC(C)(COc1ccc(CC3SC(=O)NC3=O)cc1)O2 (centres unmarked) [Troglitazone]
- Blood Glucose, mg/dl Day 0 ([3]; Troglitazone-Compound G study, drugs as 0.2% food admixtures, mean ± SEM, n=8/group): 655 ± 33 mg/dL
- Blood Glucose, mg/dl Day 14 ([3]; Troglitazone-Compound G study, drugs as 0.2% food admixtures for 15 days, mean ± SEM): 431 ± 73 mg/dL
- Blood Glucose, mg/dl Day 0 [3, 16]: 669 ± 23 mg/dL
- Blood Glucose, mg/dl Day 21 [3, 17]: 514 ± 135 mg/dL
- Plasma Triglycerides, mg/dl (Mean ± SEM) ([5]; Troglitazone-Compound G study): 131 ± 16 mg/dL
- Plasma Triglycerides, mg/dl (Mean ± SEM) ([5]; Troglitazone-Compound J study): 249 ± 60 mg/dL
- Blood Glucose, mg/dl Day 0 ([7]; Day 0 (baseline), Compound G 0.4% food admixture): 710 ± 44 mg/dL
- Blood Glucose, mg/dl Day 18 ([7]; Compound G 0.4% food admixture for 18 days): 509 ± 70 mg/dL
- Plasma Insulin, ng/ml (Mean ± SEM) [8]: 3.61 ± 1.03 ng/mL
- Blood glucose, mg/dl 2 pm, day 7 ([9]; 6 hours post second dose of Compound A 250 mg/kg (Group 3) or vehicle (Group 2), food withheld): 195 ± 12.1 mg/dL
- Blood glucose, mg/dl (8 am day 4) ([9]; Group 2, Troglitazone 0.1% admixture): 240 ± 21.3 mg/dL
- Blood glucose, mg/dl (8 am day 4) ([9]; Group 3, Troglitazone 0.1% admixture, before the first dose of Compound A): 237.5 ± 18.5 mg/dL
- Blood glucose, mg/dl (5 pm day 4) ([9]; nine hours after single oral dose of Compound A 250 mg/kg (Group 3) or vehicle (Group 2), Troglitazone 0.1% admixture): 232.5 ± 17 mg/dL
- IC50 ([10]; Rattus norvegicus, Hepatocyte): > 100000 nM
- elevation of liver enzymes (hepatotoxicity) [11]: 1 % of patients

SMILES: Nc1ncnc2c1ncn2[C@@H]1O[C@H](COP(=O)(O)O)[C@@H](O)[C@H]1O [AMP]
- IC50 [12]: 15 µM
- IC50 [13]: 1300 nM
- IC50 [14]: 25 µM

SMILES: CSc1nc(-c2ccc(P(=O)(O)O)o2)c(CC(C)C)s1 [Compound H, 2-Methylthio-5-isobutyl-4-[2-(5-phosphono)furanyl]thiazole]
- Oral bioavailability, % ([4]; estimated, urinary excretion of parent compound over 24 hours, oral 10-40 mg/kg vs intravenous ~10 mg/kg, 6-hour fasted rats): 4%
- IC50 [14]: 0.175 µM

SMILES: CN(CCOc1ccc(CC2SC(=O)NC2=O)cc1)c1ccccn1 (centres unmarked) [Rosiglitazone]
- Responders (rats whose blood glucose levels were lower on day 25 than on day 0) [15]: 6/10

SMILES: CC(C)Cc1sc(N)nc1-c1ccc(P(=O)(N[C@@H](C)C(=O)OCc2ccccc2)N[C@@H](C)C(=O)OCc2ccccc2)o1 [Compound K, 2-Amino-5-isobutyl-4-[2-(5-N,N-bis(L-alanine acid dibenzyl ester)phosphonoamido)furanyl]thiazole]
- IC50 [10]: 2100 nM
